Liver lesions data for one compound are collected here from patent publication US12385076B2, “Preparation and application of high-activity and high-safety cardamine violifolia selenoprotein standard sample” (priority 2022, dated 2025).

The series relates to rat liver. In words: Safety animal testing: 3-month repeated oral administration, liver lesions. As to conditions: male rats, repeated oral administration for 3 months; dose equivalent to 96 μgSe/kg BW for the human body. The format is in vivo.

With `O=[Se](O)O` [sodium selenite], the liver lesions entry is recorded as “caused liver lesions”.
